# Data taken from US11370785B2, “Multicyclic compounds as farnesoid X receptor modulators” (BRISTOL-MYERS SQUIBB COMPANY, priority 2017, dated 2022).
# Target: T1, human FXR (Homo sapiens, UniProt Q96RI1)
# T1 construct: expressed in transfected cells; host or cells: HEK293 cells stably carrying a 5xGal4-response-element firefly luciferase reporter, transiently transfected with the pcDNA3.1-Gal4-FXR plasmid
# T1 sequence (Q96RI1 262-486 limits assumed): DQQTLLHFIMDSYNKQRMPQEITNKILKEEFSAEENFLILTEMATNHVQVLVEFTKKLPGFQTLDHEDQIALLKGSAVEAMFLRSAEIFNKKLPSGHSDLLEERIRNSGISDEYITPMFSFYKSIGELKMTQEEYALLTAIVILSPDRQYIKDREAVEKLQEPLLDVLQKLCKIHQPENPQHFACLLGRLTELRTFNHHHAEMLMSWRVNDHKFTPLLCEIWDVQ
# Assay: transient human FXR/Gal4-luciferase reporter assay
# Type: cell-based
# Conditions: Gal4-hFXR reporter in HEK293 cells; relative to 8 μM GW-4064; read-out: FXR EC50
# Protocol: The exemplified compounds of the present invention were tested in the transient human FXR/Gal4-luciferase reporter assay, and assay results were reported in Table 1 together with other analytical data.
# A Gal4-hFXR fusion construct reporter system was used as the primary assay to characterize compound activity. A construct including 5 copies of the Gal4 promoter response element upstream of a firefly luciferase reporter cDNA was stably expressed in HEK293 cells. This reporter cell line was maintained in Dulbecco's Modified Eagle's medium (DMEM; Gibco) supplemented with 1% penicillin-streptomycin (P/S) solution, 500 μg/mL Zeocin and 10% charcoal/dextran-treated fetal bovine serum (cs-FBS) at 37° C. in a humidified 5% CO2 atmosphere. Another plasmid was constructed in which the human cytomegalovirus promoter in the pcDNA3.1 vector directs the expression of the cDNA encoding a fusion protein comprised of the DNA binding domain from the Gal4 transcription factor fused to the ligand binding domain from human FXR.
# The day prior to transfection, the reporter cells in culture are detached from the plate with trypsin and plated into a T75 flask at a sufficient density to achieve approximately 90% confluence the next morning. The transfection reagents are prepared by separately diluting 25 μg of the pcDNA3.1-Gal4-FXR plasmid into 1.87 mL of Opti-MEM (Thermo-Fisher), and 40 μL of Lipofectamine 2000 (Thermo-Fisher) into 1.87 mL of Opti-MEM, and then adding the diluted DNA solution into the diluted Lipofectamine 2000 solution and incubating at room temperature for 15-20 minutes. The mixture is further diluted with 10 mL of a solution comprised of DMEM, 10% cs-FBS, and 1% P/S immediately prior to transferring to the cells. The maintenance culture media is aspirated from the cells and the final transfection mixture is added before the cells are incubated overnight at 37° C. in a humidified 5% CO2 atmosphere. This protocol can be scaled up, and the transiently transfected cells can be cryopreserved in an assay-ready format.
# For compound testing, 100 nL of the compounds (serial dilutions in DMSO) are dispensed with an Echo acoustic dispenser (Labcyte) into the wells of a Corning/Costar clear bottom 384-well white plate. The transfected cells are harvested, counted, and diluted such that 10-25,000 cells in 25 μL are plated into each well of the 384-well compound assay plate. The compound-treated cells are incubated overnight at 37° C. in a humidified 5% CO2 atmosphere. The next morning 25 μL of Steady-Glo (Promega) are added to each well of the plate, the mixture is incubated for 15 min. with shaking, and luminescence is measured on an Envision (Perkin Elmer) plate reader. Background counts from cells treated with DMSO alone are subtracted from all raw counts, and the corrected values are converted to a percentage of the control response attained with 8 μM GW-4064.
row,Structure (SMILES),EC50
1,Cc1cc(C(=O)O)cc2sc(N3CCC4(CC3)CC(=Cc3c(-c5c(Cl)cncc5Cl)noc3C3CC3)C4)nc12 [Example 89],53 nM
2,CC(C)Oc1cc(C(=O)O)nc2ccc(N3CCC4(CC3)CC(Cc3c(-c5ccccc5OC(F)(F)F)noc3C3CC3)C4)cc12 [Example 90],12 nM
3,O=C(O)c1cc(F)c2nc(N3CCC4(CC3)CC(Cc3c(-c5ccccc5OC(F)(F)F)noc3C3CC3)C4)sc2c1 [Example 91],410 nM
4,O=C(O)c1cc(OCCO)c2cc(N3CCC4(CC3)CC(=Cc3c(-c5ccccc5C(F)(F)F)noc3C3CC3)C4)ccc2n1 [Example 92],450 nM
5,COc1cc(N2CCC3(CC2)CC(Cc2c(-c4c(Cl)cccc4Cl)noc2C2CC2)C3)ccc1OCC(=O)O [Example 93],505 nM
6,O=C(O)c1cc(OCCO)c2cc(N3CCC4(CC3)CC(Cc3c(-c5ccccc5C(F)(F)F)noc3C3CC3)C4)ccc2n1 [Example 94],472 nM
7,O=C(O)c1cc(OCCO)c2cc(N3CCC4(CC3)CC(=Cc3c(-c5c(Cl)cncc5Cl)noc3C3CC3)C4)ccc2n1 [Example 95],200 nM
8,CCc1cc(N2CCC3(CC2)CC(Cc2c(-c4c(Cl)cccc4Cl)noc2C2CC2)C3)ccc1OCC(=O)O [Example 96],793 nM
9,COCCOc1cc(C(=O)O)nc2ccc(N3CCC4(CC3)CC(Cc3c(-c5ccccc5C(F)(F)F)noc3C3CC3)C4)cc12 [Example 97],73 nM
10,COCCOc1cc(C(=O)O)nc2ccc(N3CCC4(CC3)CC(=Cc3c(-c5ccccc5C(F)(F)F)noc3C3CC3)C4)cc12 [Example 98],38 nM
11,CCOc1cc(C(=O)O)nc2ccc(N3CCC4(CC3)CC(Cc3c(-c5ccccc5C(F)(F)F)noc3C3CC3)C4)cc12 [Example 99],17 nM
12,CCOc1cc(C(=O)O)nc2ccc(N3CCC4(CC3)CC(=Cc3c(-c5ccccc5C(F)(F)F)noc3C3CC3)C4)cc12 [Example 100],18 nM
13,O=C(O)c1cc(OC(F)(F)F)c2nc(N3CCC4(CC3)CC(=Cc3c(-c5c(Cl)cncc5Cl)noc3C3CC3)C4)sc2c1 [Example 101],33 nM
14,COc1cc2nc(N3CCC4(CC3)CC(=Cc3c(-c5c(Cl)cncc5Cl)noc3C3CC3)C4)sc2cc1C(=O)O [Example 102],157 nM
15,O=C(O)c1ccc2sc(N3CCC4(CC3)CC(=Cc3c(-c5c(Cl)cncc5Cl)noc3C3CC3)C4)nc2c1 [Example 103],249 nM
16,COc1cc2nc(N3CCC4(CC3)CC(=Cc3c(-c5ccccc5C(F)(F)F)noc3C3CC3)C4)sc2cc1C(=O)O [Example 104],667 nM
17,COc1cc2nc(N3CCC4(CC3)CC(Cc3c(-c5ccccc5C(F)(F)F)noc3C3CC3)C4)sc2cc1C(=O)O [Example 105],228 nM
18,O=C(O)c1cc(C(F)(F)F)c2cc(N3CCC4(CC3)CC(=Cc3c(C(C5CC5)C5CC5)noc3C3CC3)C4)ccc2n1 [Example 106],1420 nM
19,COc1cc(C(=O)O)nc2ccc(N3CCC4(CC3)CC(=Cc3c(C(C5CC5)C5CC5)noc3C3CC3)C4)cc12 [Example 107],1550 nM
20,O=C(O)c1cc(OC2CCC2)c2cc(N3CCC4(CC3)CC(=Cc3c(-c5ccccc5C(F)(F)F)noc3C3CC3)C4)ccc2n1 [Example 108],4 nM
21,O=C(O)c1cc(OC2CCC2)c2cc(N3CCC4(CC3)CC(Cc3c(-c5ccccc5C(F)(F)F)noc3C3CC3)C4)ccc2n1 [Example 109],33 nM
22,COCCOc1cc(C(=O)O)nc2ccc(N3CCC4(CC3)CC(=Cc3c(-c5ccccc5OC(F)(F)F)noc3C3CC3)C4)cc12 [Example 110],634 nM
23,CC(C)(C)OC(=O)N1c2ccc(N3CCC4(CC3)CC(=Cc3c(-c5ccccc5OC(F)(F)F)noc3C3CC3)C4)cc2CCC1C(=O)O (centres unmarked) [Example 111],481 nM
24,O=C(O)C1CCc2cc(N3CCC4(CC3)CC(=Cc3c(-c5ccccc5OC(F)(F)F)noc3C3CC3)C4)ccc2N1 (centres unmarked) [Example 112],1030 nM
25,O=C(O)c1ccc2nc(N3CCC4(CC3)CC(=Cc3c(-c5ccccc5C(F)(F)F)noc3C3CC3)C4)sc2n1 [Example 113],1240 nM
26,O=C(O)c1ccc2nc(N3CCC4(CC3)CC(Cc3c(-c5ccccc5C(F)(F)F)noc3C3CC3)C4)sc2n1 [Example 114],744 nM
